Assay [1] deals with TM40DNeo, TM40DMp and TM40DT cells. Nature of the assay: MTT in vitro cell proliferation assay with NAC treatment. Type of assay: cell-based, mouse. As to the method:
MTT in vitro cell proliferation assay—Cells were seeded at 10^3 cells/well in 96—well plate and allowed to grow at 37° C. with 5% CO2. At each time point MTT (3-(4, 5-dimethylthiazolyl-2)-2, 5 diphenyltetrazolium bromide) reagent (5 mg/ml) was added in a volume of 10 μl per well and incubated at 37° C. with 5% CO2 for 3 hrs. The media was aspirated and 100 μl of DMSO was added and mixed until a uniform purple color was formed. The cell samples were measured using a plate reader at 570 nm. Assays were performed in triplicates.

Assay [2] deals with pERK1/2 in TM40DNeo, TM40DMp and TM40DT cells. Description: ERK1/2 phosphorylation (Western blot) with NAC treatment. The class given is cell-based, mouse. As to the method:
ERK1/2 phosphorylation—Protein lysates (30 μg) were separated on 12% SDS-PAGE and phospho-plus kit was used to determine the ERK1/2 phosphorylation (Cat No. 9100, Cell Signaling Technology).
(Immunoblotting shows a protein as a band on a membrane.)

`CC(=O)N[C@@H](CS)C(=O)O` [NAC, N-acetyl cysteine]: the proliferation rate entry in assay [1] (TM40DMp cells) is reported as “no significant change”; in assay [1] (TM40DNeo cells), “significant drop”; in assay [1] (TM40DT cells) it was “significant drop”. Moreover, the “levels of activated pERK1/2” value in assay [2] (TM40DMp cells) is “no change”; in assay [2] (TM40DNeo cells), “significantly reduced”; in assay [2] (TM40DT cells), “significantly reduced”.

Values taken from US11723961B2, “Maspin, maspin derivatives, and maspin mimetics for reducing ROS, inflammation, and skin aging” (Northwestern University, priority 2014, dated 2023).
